Assay results reported in patent publication US9795139B2, “Molecules having pesticidal utility, and intermediates, compositions, and processes, related thereto” (priority 2015, dated 2017).

Tests used:
Assay type in all cases: in vivo
[1] = system: Yellow Fever Mosquito (Aedes aegypti, AEDSAE); settings: about 1 day-old larvae, 96-well plate from 4000 ppm DMSO master, 3 days at room temperature
Description: Certain molecules disclosed in this document were tested against YFM using procedures described in the following paragraph. In the reporting of the results, the “GPA & YFM Rating Table” was used (See Table Section).
Master plates containing 400 μg of a molecule dissolved in 100 μL of dimethyl sulfoxide (DMSO) (equivalent to a 4000 ppm solution) are used. A master plate of assembled molecules contains 15 μL per well. To this plate, 135 μL of a 90:10 water/acetone mixture is added to each well. A robot is programmed to dispense 15 μL aspirations from the master plate into an empty 96-well shallow plate (“daughter” plate). There are 6 reps (“daughter” plates) created per master. The created “daughter” plates are then immediately infested with YFM larvae.
The day before plates are to be treated, mosquito eggs are placed in Millipore water containing liver powder to begin hatching (4 g. into 400 mL). After the “daughter” plates are created using the robot, they are infested with 220 μL of the liver powder/larval mosquito mixture (about 1 day-old larvae). After plates are infested with mosquito larvae, a non-evaporative lid is used to cover the plate to reduce drying. Plates are held at room temperature for 3 days prior to grading. After 3 days, each well is observed and scored based on mortality. The results are indicated in the table entitled “Table ABC: Biological Results” (See Table Section).

[2] = system: Cabbage Looper (Trichoplusia ni, TRIPNI); test: Bioassay on Cabbage Looper (CL), 128-well diet tray assay; settings: 168 h, 50 μg/cm^2 on artificial diet, second instar larvae, 25° C., five to seven days, average of eight wells, read-out: CL % Control (or Mortality) rating
In short: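 Using eight wells per molecule, artificial diet was dosed at 50 μg/cm^2 with compound in 90:10 acetone-water and dried before one to five second-instar larvae were added per well. Covered vented trays were kept at 25° C. with 14:10 light-dark for five to seven days, then per-well percent mortality was recorded and averaged.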

[3] = system: Beet Armyworm (Spodoptera exigua, LAPHEG); test: Bioassay on Beet Armyworm (BAW), 128-well diet tray assay; settings: 168 h, 50 μg/cm^2 on artificial diet, second instar larvae, 25° C., five to seven days, average of eight wells, read-out: BAW % Control (or Mortality) rating
In short: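 Second-instar larvae, one to five per well, placed on artificial diet surface-treated with 50 μg/cm^2 compound applied in 90:10 acetone-water and dried. Held 5–7 days at 25° C., 14:10 light-dark. Percent mortality recorded per well and averaged over eight wells.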

With `O=C(NC1CC(F)(F)C1)c1cc(NC(=O)[C@H]2[C@H](c3cc(Cl)cc(Cl)c3)C2(Br)Br)ccc1Cl` (relative stereo) [PF31, trans-2-Chloro-5-(2,2-dibromo-3-(3,5-dichlorophenyl)cyclopropane-1-carboxamido)-N-(3,3-difluorocyclobutyl)benzamide] the “YFM % Control (or Mortality) rating” value [1] was “B (More than 0-Less than 80)”, the mortality at 50 µg/cm2 [2] was 50 to 100% and the mortality at 50 µg/cm2 [3] was 50 to 100%.
For `N#CC1(NC(=O)c2cc(NC(=O)[C@H]3[C@H](c4cc(F)cc(Cl)c4)C3(Cl)Cl)ccc2Cl)CC1` (relative stereo) [PF1, trans-2-Chloro-N-(1-cyanocyclopropyl)-5-(2,2-dichloro-3-(3-chloro-5-fluorophenyl)cyclopropane-1-carboxamido)benzamide], the “YFM % Control (or Mortality) rating” value [1] was “A (80-100)”, the mortality at 50 µg/cm2 [2] was 50 to 100% and the mortality at 50 µg/cm2 [3] was 50 to 100%.
In the case of `N#CC1(NC(=O)c2cc(NC(=O)[C@H]3[C@H](c4cccc(C(F)F)c4)C3(Cl)Cl)ccc2Cl)CC1` (relative stereo) [Molecule F91, trans-2-Chloro-N-(1-cyanocyclopropyl)-5-(2,2-dichloro-3-(3-(difluoromethyl)-phenyl)cyclopropane-1-carboxamido)benzamide], the “YFM % Control (or Mortality) rating” value [1] is reported as “A (80-100)”, the mortality at 50 µg/cm2 [2] is reported as 50 to 100% and the mortality at 50 µg/cm2 [3] is reported as 50 to 100%.
With `N#CC1(NC(=O)c2cc(NC(=O)[C@H]3[C@H](c4ccc(C(F)F)c(F)c4)C3(Cl)Cl)ccc2Cl)CC1` (relative stereo) [Molecule F90, trans-2-Chloro-N-(1-cyanocyclopropyl)-5-(2,2-dichloro-3-(4-(difluoromethyl)-3-fluorophenyl)cyclopropane-1-carboxamido)benzamide] the “YFM % Control (or Mortality) rating” value [1] was “A (80-100)”, the mortality at 50 µg/cm2 [2] was 50 to 100% and the mortality at 50 µg/cm2 [3] was 50 to 100%.
`O=C(NC1CCC(F)(F)CC1)c1cc(NC(=O)[C@H]2[C@H](c3cc(Cl)c(Cl)c(Cl)c3)C2(Cl)Cl)ccc1Cl` (relative stereo) [Molecule F45, trans-2-Chloro-5-(2,2-dichloro-3-(3,4,5-trichlorophenyl)cyclopropanecarboxamido)-N-(4,4-difluorocyclohexyl)benzamide] was tested, and the “YFM % Control (or Mortality) rating” value [1] was “A (80-100)”, the mortality at 50 µg/cm2 [2] was 50 to 100% and the mortality at 50 µg/cm2 [3] was 50 to 100%.
`N#CC1CCC(NC(=O)c2cc(NC(=O)[C@H]3[C@H](c4ccc(Cl)c(Cl)c4)C3(Cl)Cl)ccc2Cl)C1` (relative stereo) [Molecule F36, trans-2-Chloro-N-(3-cyanocyclopentyl)-5-(2,2-dichloro-3-(3,4-dichlorophenyl)cyclopropanecarboxamido)benzamide] was tested, and the “YFM % Control (or Mortality) rating” value [1] was “B (More than 0-Less than 80)”, the mortality at 50 µg/cm2 [2] was 50 to 100% and the mortality at 50 µg/cm2 [3] was 50 to 100%.
In the case of `CCN1OC[C@@H](NC(=O)c2cc(NC(=O)C3C(c4cc(Cl)cc(Cl)c4)C3(Cl)Cl)ccc2Cl)C1=O` (stereo partly drawn) [PF45, trans-2-Chloro-5-(2,2-dichloro-3-(3,5-dichlorophenyl)cyclopropane-1-carbox-amido)-N—((R)-2-ethyl-3-oxoisoxazolidin-4-yl)benzamide], the “YFM % Control (or Mortality) rating” value [1] is reported as “A (80-100)”, the mortality at 50 µg/cm2 [2] is reported as 50 to 100% and the mortality at 50 µg/cm2 [3] is reported as 50 to 100%.
For `O=C(NC1CCSC1=O)c1cc(NC(=O)C2C(c3cc(Cl)cc(Cl)c3)C2(Cl)Cl)ccc1Cl` (stereo not drawn) [PF36, trans-2-Chloro-5-(2,2-dichloro-3-(3,5-dichlorophenyl)cyclopropane-1-carbox-amido)-N-(2-oxotetrahydrothiophen-3-yl)benzamide], the “YFM % Control (or Mortality) rating” value [1] was “A (80-100)”, the mortality at 50 µg/cm2 [2] was 50 to 100% and the mortality at 50 µg/cm2 [3] was 50 to 100%.
`Cc1cc(Cl)cc([C@H]2[C@H](C(=O)Nc3ccc(Cl)c(C(=O)NC4CC(F)(F)C4)c3)C2(Cl)Cl)c1` (relative stereo) [Molecule F46, trans-2-Chloro-5-(2,2-dichloro-3-(3-chloro-5-methylphenyl)cyclopropanecarboxamido)-N-(3,3-difluorocyclobutyl)benzamide] was tested, and the “YFM % Control (or Mortality) rating” value [1] was “D (No activity noticed in this bioassay)”, the mortality at 50 µg/cm2 [2] was 50 to 100% and the mortality at 50 µg/cm2 [3] was 50 to 100%.
For `CN(C(=O)c1cc(NC(=O)[C@H]2[C@H](c3cc(Cl)c(Cl)c(Cl)c3)C2(Cl)Cl)ccc1Cl)C1(C#N)CC1` (relative stereo) [PF21, trans-2-Chloro-N-(1-cyanocyclopropyl)-5-(2,2-dichloro-3-(3,4,5-trichloro-phenyl)cyclopropane-1-carboxamido)-N-methylbenzamide], the “YFM % Control (or Mortality) rating” value [1] was “B (More than 0-Less than 80)”, the mortality at 50 µg/cm2 [2] was 50 to 100% and the mortality at 50 µg/cm2 [3] was 50 to 100%.
`N#CC1(NC(=O)c2cc(NC(=O)[C@H]3[C@H](c4ccc(Cl)c(C(F)F)c4)C3(Cl)Cl)ccc2Cl)CC1` (relative stereo) [Molecule F86, trans-2-Chloro-N-(1-cyanocyclopropyl)-5-(2,2-dichloro-3-(4-chloro-3-(difluoro-methyl)phenyl)cyclopropane-1-carboxamido)benzamide] was tested, and the “YFM % Control (or Mortality) rating” value [1] was “A (80-100)”, the mortality at 50 µg/cm2 [2] was 50 to 100% and the mortality at 50 µg/cm2 [3] was 50 to 100%.
`N#CC1(NC(=O)c2cc(NC(=O)[C@H]3[C@H](c4ccc(F)c(C(F)F)c4)C3(Cl)Cl)ccc2Cl)CC1` (relative stereo) [Molecule F88, trans-2-Chloro-N-(1-cyanocyclopropyl)-5-(2,2-dichloro-3-(3-(difluoromethyl)-4-fluorophenyl)cyclopropane-1-carboxamido)benzamide] was tested, and the “YFM % Control (or Mortality) rating” value [1] was “A (80-100)”, the mortality at 50 µg/cm2 [2] was 50 to 100% and the mortality at 50 µg/cm2 [3] was 50 to 100%.
In the case of `N#CC1(NC(=O)c2cc(NC(=O)[C@H]3[C@H](c4cc(Cl)cc(C(F)F)c4)C3(Cl)Cl)ccc2Cl)CC1` (relative stereo) [Molecule F85, trans-2-Chloro-N-(1-cyanocyclopropyl)-5-(2,2-dichloro-3-(3-chloro-5-(difluoro-methyl)phenyl)cyclopropane-1-carboxamido)benzamide], the “YFM % Control (or Mortality) rating” value [1] is reported as “A (80-100)”, the mortality at 50 µg/cm2 [2] is reported as 50 to 100% and the mortality at 50 µg/cm2 [3] is reported as 50 to 100%.
`COc1c(F)cc([C@H]2[C@H](C(=O)Nc3ccc(Cl)c(C(=O)NC4(C#N)CC4)c3)C2(Cl)Cl)cc1Br` (relative stereo) [Molecule F84, trans-5-(3-(3-Bromo-5-fluoro-4-methoxyphenyl)-2,2-dichlorocyclopropane-1-carboxamido)-2-chloro-N-(1-cyanocyclopropyl)benzamide] was tested, and the “YFM % Control (or Mortality) rating” value [1] was “A (80-100)”, the mortality at 50 µg/cm2 [2] was 50 to 100% and the mortality at 50 µg/cm2 [3] was 50 to 100%.
With `COCC(=O)N1CC(NC(=O)c2cc(NC(=O)[C@H]3[C@H](c4cc(Cl)cc(Cl)c4)C3(Cl)Cl)ccc2Cl)C1` (relative stereo) [PF14, trans-2-Chloro-5-(2,2-dichloro-3-(3,5-dichlorophenyl)cyclopropane-1-carboxamido)-N-(1-(2-methoxyacetyl)azetidin-3-yl)benzamide] the “YFM % Control (or Mortality) rating” value [1] was “A (80-100)”, the mortality at 50 µg/cm2 [2] was 50 to 100% and the mortality at 50 µg/cm2 [3] was 50 to 100%.
`N#CC1(NC(=O)c2cc(NC(=O)[C@H]3[C@H](c4cc(F)c(Br)c(F)c4)C3(Cl)Cl)ccc2Cl)CC1` (relative stereo) [Molecule F82, trans-5-(3-(4-Bromo-3,5-difluorophenyl)-2,2-dichlorocyclopropane-1-carboxamido)-2-chloro-N-(1-cyanocyclopropyl)benzamide] was tested, and the “YFM % Control (or Mortality) rating” value [1] was “A (80-100)”, the mortality at 50 µg/cm2 [2] was 50 to 100% and the mortality at 50 µg/cm2 [3] was 50 to 100%.
With `N#CC1(NC(=O)c2cc(NC(=O)[C@H]3[C@H](c4cc(Cl)cc(Cl)c4)C3(Br)Br)ccc2Cl)CC1` (relative stereo) [PF30, trans-2-Chloro-N-(1-cyanocyclopropyl)-5-(2,2-dibromo-3-(3,5-dichlorophenyl)-cyclopropane-1-carboxamido)benzamide] the “YFM % Control (or Mortality) rating” value [1] was “D (No activity noticed in this bioassay)”, the mortality at 50 µg/cm2 [2] was 50 to 100% and the mortality at 50 µg/cm2 [3] was 50 to 100%.
In the case of `O=C(NC1CN(C(=O)CC(F)(F)F)C1)c1cc(NC(=O)[C@H]2[C@H](c3cc(Cl)cc(Cl)c3)C2(Cl)Cl)ccc1Cl` (relative stereo) [PF12, trans-2-Chloro-5-(2,2-dichloro-3-(3,5-dichlorophenyl)cyclopropane-1-carboxamido)-N-(1-(3,3,3-trifluoropropanoyl)azetidin-3-yl)benzamide], the “YFM % Control (or Mortality) rating” value [1] is reported as “A (80-100)”, the mortality at 50 µg/cm2 [2] is reported as 50 to 100% and the mortality at 50 µg/cm2 [3] is reported as 50 to 100%.
With `O=C(NC1CCOC1=O)c1cc(NC(=O)C2C(c3cc(Cl)cc(Cl)c3)C2(Cl)Cl)ccc1Cl` (stereo not drawn) [PF37, trans-2-Chloro-5-(2,2-dichloro-3-(3,5-dichlorophenyl)cyclopropane-1-carbox-amido)-N-(2-oxotetrahydrofuran-3-yl)benzamide] the “YFM % Control (or Mortality) rating” value [1] was “A (80-100)”, the mortality at 50 µg/cm2 [2] was 50 to 100% and the mortality at 50 µg/cm2 [3] was 50 to 100%.
